Results reported in US20160007600A1, “SYNTHETIC LIPOCHITOOLIGOSACCHARIDE ANALOGS FOR ENHANCING PLANT PERFORMANCE” (E.I. DU PONT DE NEMOURS AND COMPANY, priority 2013, published 2016).

Key:
[1] = tested on: soybean seeds; assay: Seed germination assay; assay type: in vivo; conditions: for germination in 24 hours: test compound 10^−7 M in DI-water, 24 hr in dark at room temperature, radicle emergence as indicator, five repeats of 20 seeds
Procedure: Materials were all sterilized before use. An aqueous solution of the test compound (25 mL, 10^−7 M in DI-water) was prepared for a set of five repeat experiments. Five Petri dishes and 100 soybean seeds were used to test one compound. A piece of Whatman filter paper was used to cover the inner side of each Petri dish to allow uniform distribution of testing solution. Twenty soybean seeds were placed on the filter paper area of one Petri dish. 5 mL of the test compound solution was carefully poured in the Petri dish. Control experiments were set up the same way with 20 soybean seeds and 5 mL of DI-water per dish without any compounds. The lid was placed on the Petri dish and was sealed with Para-film. Five dishes with repeat experiments were stacked. One stack of dishes was wrapped twice with aluminum foil to prevent the seeds receiving any light. The stacks were transferred to an incubator maintained at room temperature and the seeds were germinated in dark. After 24 hr, the stacks were pulled out for measurement. The number of germinated seeds was counted and the percent of germination on each dish was calculated. Radicle emergence was used as the germination indicator. The dishes were placed unwrapped at room temperature for one day and the number of germinated seeds was counted to assure seeds were able to germinate and different germination yields were not caused by bad seed quality. Seeds showing above 90% of germination were considered normal. The standard deviation of five repeats was calculated. Test results with 10% or lower standard deviation was considered good. Compounds acting as plant performance enhancers should promote a significant increase in average percentage of germination compared to the control above the standard deviation.

[2] = tested on: soybean seeds; assay: Plant growth assay (radical length of germinating seed); assay type: in vivo; conditions: soybean seeds germinated 24 hr with 10^−7 M compound, then additional 40 hr open to light at room temperature
Procedure: Plant growth assay Seeds germinated for 24 hr using the seed germination assay above were left open to light for another 40 hr. The radical length was measured and the percentage of germinating seed with radical length of greater than 1.5 cm was determined.

Compound	germination in 24 hours [1] [%]	germinating seed with radical length longer than 1.5 cm [2] [%]	efficacy for enhanced seed germination and radical growth (summary in words) ([1]; conclusion from the germination and plant growth assays)
CO[C@@H]1O[C@H](CO)[C@@H](O)[C@H](O)[C@H]1NC(=O)/C=C/C=C/c1ccccc1 [Example 1, (2E,4E)-N-((2R,3R,4R,5S,6R)-4,5-dihydroxy-6-(hydroxymethyl)-2-methoxytetrahydro-2H-pyran-3-yl)-5-phenylpenta-2,4-dienamide]	75	69	–
CO[C@@H]1O[C@H](CO)[C@@H](O)[C@H](O)[C@H]1NC(=O)/C=C/c1cccc(C(F)(F)F)c1 [Example 4, (E)-N-((2R,3R,4R,5S,6R)-4,5-dihydroxy-6-(hydroxymethyl)-2-methoxytetrahydro-2H-pyran-3-yl)-3-(3-(trifluoromethyl)phenyl)acrylamide]	75	69	–
CO[C@@H]1O[C@H](CO)[C@@H](O)[C@H](O)[C@H]1NC(=O)/C=C/c1ccc(C)cc1 [Example 2, (E)-N-((2R,3R,4R,5S,6R)-4,5-dihydroxy-6-(hydroxymethyl)-2-methoxytetrahydro-2H-pyran-3-yl)-3-(p-tolyl)acrylamide]	70	66	–
CO[C@@H]1O[C@H](CO)[C@@H](O)[C@H](O)[C@H]1NC(=O)C#Cc1ccccc1 [Example 5, N-((2R,3R,4R,5S,6R)-4,5-dihydroxy-6-(hydroxymethyl)-2-methoxytetrahydro-2H-pyran-3-yl)-3-phenylpropiolamide]	86	95	–
CO[C@@H]1O[C@H](CO)[C@@H](O)[C@H](O)[C@H]1N [(2R,3S,4R,5R,6R)-5-amino-2-(hydroxymethyl)-6-methoxytetrahydro-2H-pyran-3,4-diol, reference compound]	53	45	insignificant efficacy
CO[C@@H]1O[C@H](CO)[C@@H](O)[C@H](O)[C@H]1NC(=O)/C=C/c1cccc(C)c1 [Example 3, (E)-N-((2R,3R,4R,5S,6R)-4,5-dihydroxy-6-(hydroxymethyl)-2-methoxytetrahydro-2H-pyran-3-yl)-3-(m-tolyl)acrylamide]	61	56	–
